Measured values taken from ChEMBL document CHEMBL1135611, “Thrombin inhibition by novel benzamidine derivatives: a free-energy perturbation study” (J Med Chem, 2002).

Target: Prothrombin (Homo sapiens, UniProt P00734)
Test: Binding Affinity to Thrombin

| Ki | Structure (SMILES) |
| --- | --- |
| 620 nM | NC(N)c1ccc(CC(=O)C(=O)O)cc1 |
| 300 nM | NC(N)c1ccccc1 |
